From patent US10125134B2 (Mirati Therapeutics, Inc., priority 2016, dated 2018)
Like-named read-outs stand apart in the source and are kept apart here.

How the values were obtained:
[1] = system: NCI-H358 cells (express KRas G12C), Phospho-ERK; experiment: Cellular inhibition of KRas G12C: Phospho-ERK in NCI-H358 cells; type: cell-based; details: pERK(Thr202/Tyr204) normalized with GAPDH, NCI-H358 cells, 3 hours, read-out: IC50
Method in brief: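 IC50 derived by 4-parameter fit of GAPDH-normalized pERK(Thr202/Tyr204) signal, as percent of DMSO control. Signal came from in-cell immunodetection with infrared secondaries after 3 h compound exposure of KRas G12C NCI-H358 cells at 0.5% DMSO.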

KRas G12C = KRas G12C (Homo sapiens, UniProt P01116, C118S/C51S/C80L/G12C); experiment: KRas G12C Modification Assay (LCMS detection of covalent adduct); type: binding; details: normalized percent of control, tested at 5 μM concentration for 3 hours
Method in brief: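 Covalent modification was read by reverse-phase LC/MS of intact protein after compound exposure, each reaction stopped at its time point with 25 mM acetic acid. Unmodified-protein signal, taken as percent of total, was normalised to untreated protein and reported as POC.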

| POC (KRas G12C) | POC (KRas G12C; 5 µM) | Compound | IC50 ([1]; Homo sapiens, NCI-H358, 3 h) [µM] | IC50 [1] [µM] | IC50 ([1]; Homo sapiens) [µM] |
| --- | --- | --- | --- | --- | --- |
| C (“C”>50% POC) | – | C=CC(=O)N1CCN(c2nc(OCC3CCN(CCO)C3)nc3c2CCN(c2cc(O)cc4ccccc24)C3)CC1 (stereo not drawn) [Example 141, 1-[4-[2-[[1-(2-hydroxyethyl)pyrrolidin-3-yl]methoxy]-7-(3-hydroxy-1-naphthyl)-6,8-dihydro-5H-pyrido[3,4-d]pyrimidin-4-yl]piperazin-1-yl]prop-2-en-1-one] | > 1 | – | – |
| C (“C”>50% POC) | – | C=CC(=O)N1CCN(c2nc(OCCCO)nc3c2CCN(c2cc(O)cc4ccccc24)C3)CC1 [Example 184, 1-[4-[7-(3-hydroxy-1-naphthyl)-2-(3-hydroxypropoxy)-6,8-dihydro-5H-pyrido[3,4-d]pyrimidin-4-yl]piperazin-1-yl]prop-2-en-1-one] | > 1 | – | – |
| C (“C”>50% POC) | – | C=CC(=O)N1CCN(c2nc(OC[C@@H]3C[C@@H](O)CN3C)nc3c2CCN(c2cccc4ccccc24)C3)CC1CC#N (stereo partly drawn) [Example 218, 2-(1-acryloyl-4-(2-(((2S,4R)-4-hydroxy-1-methylpyrrolidin-2-yl)methoxy)-7-(naphthalen-1-yl)-5,6,7,8-tetrahydropyrido[3,4-d]pyrimidin-4-yl)piperazin-2-yl)acetonitrile] | 0.0001 to 1 | – | – |
| – | C (“C”>50% POC) | C=CC(=O)N1CCN(c2nc(OC[C@@H]3CCCN3C)nc3c2CCN(c2ccnc4ccccc24)C3)CC1CC#N (stereo partly drawn) [Example 278, 2-(1-acryloyl-4-(2-(((S)-1-methylpyrrolidin-2-yl)methoxy)-7-(quinolin-4-yl)-5,6,7,8-tetrahydropyrido[3,4-d]pyrimidin-4-yl)piperazin-2-yl)acetonitrile] | – | 0.0001 to 1 | – |
| C (“C”>50% POC) | – | C=CC(=O)N1CCN(c2nc(OC[C@H]3C[C@H](F)CN3C)nc3c2CCN(c2cccc(F)c2C(F)(F)F)C3)CC1CC#N (stereo partly drawn) [Example 416, 2-(1-acryloyl-4-(2-(((2R,4S)-4-fluoro-1-methylpyrrolidin-2-yl)methoxy)-7-(3-fluoro-2-(trifluoromethyl)phenyl)-5,6,7,8-tetrahydropyrido[3,4-d]pyrimidin-4-yl)piperazin-2-yl)acetonitrile] | 0.0001 to 1 | – | – |
| B (“B”>25% POC−≤50% POC) | – | C=CC(=O)N1CCN(c2nc(OCCCN3CCOCC3)nc3c2CCN(c2cc(O)ccc2C)C3)CC1 [Example 105, 1-(4-(7-(5-hydroxy-2-methylphenyl)-2-(3-morpholinopropoxy)-5,6,7,8-tetrahydropyrido[3,4-d]pyrimidin-4-yl)piperazin-1-yl)prop-2-en-1-one] | – | – | > 1 |
| C (“C”>50% POC) | – | C=CC(=O)N1CCN(c2nc(OC[C@@H]3CCCN3C)nc3c2CCN(c2c(F)cccc2C(F)(F)F)C3)CC1CC#N (stereo partly drawn) [Example 411, 2-(1-acryloyl-4-(7-(2-fluoro-6-(trifluoromethyl)phenyl)-2-(((S)-1-methylpyrrolidin-2-yl)methoxy)-5,6,7,8-tetrahydropyrido[3,4-d]pyrimidin-4-yl)piperazin-2-yl)acetonitrile] | – | 0.0001 to 1 | – |
| C (“C”>50% POC) | – | C=CC(=O)N1CCN(c2nc(OCCN3CCC[C@H](F)C3)nc3c2CCN(c2cc(O)cc4ccccc24)C3)CC1 [Example 111, (S)-1-(4-(2-(2-(3-fluoropiperidin-1-yl)ethoxy)-7-(3-hydroxynaphthalen-1-yl)-5,6,7,8-tetrahydropyrido[3,4-d]pyrimidin-4-yl)piperazin-1-yl)prop-2-en-1-one] | 0.0001 to 1 | – | – |
| C (“C”>50% POC) | – | C=CC(=O)N1CCN(c2nc(OCCCN3CCCCC3)nc3c2CCN(c2cc(O)cc4ccccc24)C3)CC1 [Example 38, 1-(4-(7-(3-hydroxynaphthalen-1-yl)-2-(3-(piperidin-1-yl)propoxy)-5,6,7,8-tetrahydropyrido[3,4-d]pyrimidin-4-yl)piperazin-1-yl)prop-2-en-1-one] | 0.0001 to 1 | – | – |
| C (“C”>50% POC) | – | C=CC(=O)N1CCN(c2nc(O[C@H](C)CN(C)C)nc3c2CCN(c2cc(O)c(F)c4ccccc24)C3)CC1 [Example 124, (R)-1-(4-(2-((1-(dimethylamino)propan-2-yl)oxy)-7-(4-fluoro-3-hydroxynaphthalen-1-yl)-5,6,7,8-tetrahydropyrido[3,4-d]pyrimidin-4-yl)piperazin-1-yl)prop-2-en-1-one] | – | – | > 1 |
| C (“C”>50% POC) | – | C=CC(=O)N1CCN(c2nc(OC[C@@H]3CCN(C)C3)nc3c2CCN(c2cc(O)cc4ccccc24)C3)CC1CC#N (stereo partly drawn) [Example 179, 2-[4-[7-(3-hydroxy-1-naphthyl)-2-[[(3R)-1-methylpyrrolidin-3-yl]methoxy]-6,8-dihydro-5H-pyrido[3,4-d]pyrimidin-4-yl]-1-prop-2-enoyl-piperazin-2-yl]acetonitrile] | 0.0001 to 1 | – | – |
| C (“C”>50% POC) | – | C/C=C/C(=O)N1CCN(c2nc(OC[C@@H]3CCCN3C)nc3c2CCN(c2cccc4ccccc24)C3)CC1CC#N (stereo partly drawn) [Example 293, 2-[1-[(E)-but-2-enoyl]-4-[2-[[(2S)-1-methylpyrrolidin-2-yl]methoxy]-7-(1-naphthyl)-6,8-dihydro-5H-pyrido[3,4-d]pyrimidin-4-yl]piperazin-2-yl]acetonitrile] | – | 0.0001 to 1 | – |
| A (“A”≤25% POC) | – | C=CC(=O)N1CCN(c2nc(OC[C@@H]3CCCN3C)nc3c2CCN(c2cccc4cnccc24)C3)CC1CC#N (stereo partly drawn) [Example 292, 2-[4-[7-(5-isoquinolyl)-2-[[(2S)-1-methylpyrrolidin-2-yl]methoxy]-6,8-dihydro-5H-pyrido[3,4-d]pyrimidin-4-yl]-1-prop-2-enoyl-piperazin-2-yl]acetonitrile] | – | > 1 | – |
| C (“C”>50% POC) | – | C=CC(=O)N1CCN(c2nc(OC[C@@H]3CCCN3C)nc3c2CCN(c2c(Cl)ccc4[nH]ncc24)C3)CC1 [Example 250, 1-[4-[7-(5-chloro-1H-indazol-4-yl)-2-[[(2S)-1-methylpyrrolidin-2-yl]methoxy]-6,8-dihydro-5H-pyrido[3,4-d]pyrimidin-4-yl]piperazin-1-yl]prop-2-en-1-one] | > 1 | – | – |
| C (“C”>50% POC) | – | C=CC(=O)N1CCN(c2nc(OC(C)CN(C)C)nc3c2CCN(c2cc(O)cc4ccccc24)C3)CC1 (stereo not drawn) [Example 11, 1-(4-(2-((1-(dimethylamino)propan-2-yl)oxy)-7-(3-hydroxynaphthalen-1-yl)-5,6,7,8-tetrahydropyrido[3,4-d]pyrimidin-4-yl)piperazin-1-yl)prop-2-en-1-one] | 0.0001 to 1 | – | – |
| C (“C”>50% POC) | – | C=CC(=O)N1CCN(c2nc(OC[C@@H]3CCN(C)C3)nc3c2CCN(c2ccccc2C(F)(F)F)C3)CC1CC#N (stereo partly drawn) [Example 281, 2-(1-acryloyl-4-(2-(((R)-1-methylpyrrolidin-3-yl)methoxy)-7-(2-(trifluoromethyl)phenyl)-5,6,7,8-tetrahydropyrido[3,4-d]pyrimidin-4-yl)piperazin-2-yl)acetonitrile] | 0.0001 to 1 | – | – |
| C (“C”>50% POC) | – | C=CC(=O)N1CCN(c2nc(OC[C@H]3CCCN3CC)nc3c2CCN(c2cccc4ccccc24)C3)C[C@@H]1CC#N [Example 334, 2-[(2S)-4-[2-[[(2R)-1-ethylpyrrolidin-2-yl]methoxy]-7-(1-naphthyl)-6,8-dihydro-5H-pyrido[3,4-d]pyrimidin-4-yl]-1-prop-2-enoyl-piperazin-2-yl]acetonitrile] | 0.0001 to 1 | – | – |
| C (“C”>50% POC) | – | C=CC(=O)N1CCN(c2nc(OC[C@@H]3CCCN3C)nc3c2CCN(c2cccc(F)c2F)C3)C[C@@H]1CC#N [Example 406, 2-((S)-1-acryloyl-4-(7-(2,3-difluorophenyl)-2-(((S)-1-methylpyrrolidin-2-yl)methoxy)-5,6,7,8-tetrahydropyrido[3,4-d]pyrimidin-4-yl)piperazin-2-yl)acetonitrile] | > 1 | – | – |
| C (“C”>50% POC) | – | C=CC(=O)N1CCN(c2nc(OC[C@@H]3CCCN3C)nc3c2CCN(c2cncc(F)c2C(F)(F)F)C3)C[C@@H]1CC#N [Example 383, 2-((S)-1-acryloyl-4-(7-(5-fluoro-4-(trifluoromethyl)pyridin-3-yl)-2-(((S)-1-methylpyrrolidin-2-yl)methoxy)-5,6,7,8-tetrahydropyrido[3,4-d]pyrimidin-4-yl)piperazin-2-yl)acetonitrile] | 0.0001 to 1 | – | – |

| Compound | POC (KRas G12C) | POC (KRas G12C; 5 µM) | IC50 ([1]; Homo sapiens, NCI-H358, 3 h) [µM] | IC50 [1] [µM] | IC50 ([1]; Homo sapiens) [µM] |
| --- | --- | --- | --- | --- | --- |
| C=CC(=O)N1CCN(c2nc(OC[C@@H]3CCCN3C)nc3c2CCN(c2c(C)c(C)cc4[nH]ncc24)C3)C[C@@H]1CC#N [Example 459, 2-[(2S)-4-[7-(5,6-dimethyl-1H-indazol-4-yl)-2-[[(25)-1-methylpyrrolidin-2-yl]methoxy]-6,8-dihydro-5H-pyrido[3,4-d]pyrimidin-4-yl]-1-prop-2-enoyl-piperazin-2-yl]acetonitrile] | C (“C”>50% POC) | – | – | 0.0001 to 1 | – |
| C=CC(=O)N1CCN(c2nc(OCCCN3CCOCC3)nc3c2CCN(c2c(C)c(O)cc4ccccc24)C3)CC1 [Example 173, 1-(4-(7-(3-hydroxy-2-methylnaphthalen-1-yl)-2-(3-morpholinopropoxy)-5,6,7,8-tetrahydropyrido[3,4-d]pyrimidin-4-yl)piperazin-1-yl)prop-2-en-1-one] | C (“C”>50% POC) | – | – | – | > 1 |
